In US6355799B1, “Substituted benzene compounds, process for their preparation, and herbicidal and defoliant compositions containing them” (ISK Americas Incorporated, priority 1997, dated 2002):

Assays:
Format in all cases: in vivo
[1] = system: sicklepod (Cassia obtusifolia, CASOB); experiment: Pre-emerge test, greenhouse herbicide activity screening; conditions: phytotoxicity rating 0-100, 14 days after application
Method in brief: (§1)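 Compounds in acetone were track-sprayed at 15–1000 g ai/ha: pre-emergence onto soil sown the previous day, then top-watered to incorporate and later bottom-watered; post-emergence onto 2–3 leaf plants with 0.25% v/v surfactant, bottom-watered only. Ratings on a 0–100 phytotoxicity scale were taken at day 14.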

[2] = system: large crabgrass (Digitaria sanguinalis, DIGSA); experiment: as above; conditions: phytotoxicity rating 0-100, 14 days after application
Method in brief: as §1

[3] = system: johnsongrass (Sorghum halepense, SORHA); experiment: as above; conditions: phytotoxicity rating 0-100, 14 days after application
Method in brief: as §1

[4] = system: lambsquarters (Chenopodium album, CHEAL); experiment: as above; conditions: phytotoxicity rating 0-100, 14 days after application
Method in brief: as §1

[5] = system: barnyardgrass (Echinochloa crus-galli, ECHCG); experiment: as above; conditions: phytotoxicity rating 0-100, 14 days after application
Method in brief: as §1

[6] = system: ivyleaf morningglory (Ipomoea hederacea, IPOHE); experiment: as above; conditions: phytotoxicity rating 0-100, 14 days after application
Method in brief: as §1

[7] = system: green foxtail (Setaria viridis, SETVI); experiment: as above; conditions: phytotoxicity rating 0-100, 14 days after application
Method in brief: as §1

[8] = system: velvetleaf (Abutilon theophrasti, ABUTH); experiment: as above; conditions: phytotoxicity rating 0-100, 14 days after application
Method in brief: as §1

[9] = system: field corn (Zea mays L., var. Dekalb 535, CORN); experiment: Pre-emerge test, crop safety; conditions: crop damage rating 0-100, 14 days after application
Method in brief: (§2)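 Compounds in acetone were track-sprayed at 15-1000 g ai/ha (187 l/ha) on sandy loam pots: pre-emerge one day after seeding, post-emerge at 2-3 leaf stage with 0.25% v/v non-ionic surfactant. Phytotoxicity was rated 14 days later on a 0 (no damage) to 100 (complete death) scale.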

[10] = system: upland rice (Oryza sp., var. Tebonnet, RICE); experiment: Pre-emerge test, crop safety; conditions: crop damage rating 0-100, 14 days after application
Method in brief: as §2

[11] = system: field corn (Zea mays L., var. Dekalb 535, CORN); experiment: Post-emerge test, crop safety; conditions: post-emerge, 14 days after application, rating scale 0-100
Method in brief: (§3)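 Rating: 0–100 visual injury, 14 DAA. Application: acetone, 187 l/ha, 15–1000 g ai/ha, flat-fan track sprayer with nozzle 40–45 cm above soil or canopy. Post-emerge runs used 0.25% v/v surfactant on 2–3 leaf plants.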

[12] = system: upland rice (Oryza sp., var. Tebonnet, RICE); experiment: Post-emerge test, crop safety; conditions: post-emerge, 14 days after application, rating scale 0-100
Method in brief: as §3

[13] = system: redroot pigweed (Amaranthus retroflexus, AMARE); experiment: Pre-emerge test, greenhouse herbicide activity screening; conditions: phytotoxicity rating 0-100, 14 days after application
Method in brief: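 Sandy loam pots; pre-emerge: sown 1 d pre-spray, surface-watered after, then bottom-watered. Post-emerge: sown 8–21 d before, 2–3 leaf stage, + 0.25% v/v NIS, bottom-watered. Acetone, 187 l/ha track spray, 15–1000 g ai/ha. 0–100 injury score, day 14.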

[14] = system: sicklepod (Cassia obtusifolia, CASOB); experiment: Post-emerge test, greenhouse herbicide activity screening; conditions: post-emerge, 14 days after application, rating scale 0-100
Method in brief: (§4)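 Fourteen days after spraying, crop and weed injury was graded visually from 0, no effect, to 100, every plant dead. Test substances were dissolved in acetone and applied at 15–1000 g ai/ha with a flat-fan nozzle. Application was either pre-emergence, one day after sowing, or post-emergence at the 2–3 leaf stage.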

[15] = system: large crabgrass (Digitaria sanguinalis, DIGSA); experiment: as above; conditions: post-emerge, 14 days after application, rating scale 0-100
Method in brief: as §4

[16] = system: johnsongrass (Sorghum halepense, SORHA); experiment: as above; conditions: post-emerge, 14 days after application, rating scale 0-100
Method in brief: as §4

[17] = system: redroot pigweed (Amaranthus retroflexus, AMARE); experiment: as above; conditions: post-emerge, 14 days after application
Method in brief: as §4

[18] = system: lambsquarters (Chenopodium album, CHEAL); experiment: as above; conditions: post-emerge, 14 days after application, rating scale 0-100
Method in brief: as §4

[19] = system: barnyardgrass (Echinochloa crus-galli, ECHCG); experiment: as above; conditions: post-emerge, 14 days after application, rating scale 0-100
Method in brief: as §4

[20] = system: ivyleaf morningglory (Ipomoea hederacea, IPOHE); experiment: as above; conditions: post-emerge, 14 days after application, rating scale 0-100
Method in brief: as §4

[21] = system: green foxtail (Setaria viridis, SETVI); experiment: as above; conditions: post-emerge, 14 days after application, rating scale 0-100
Method in brief: as §4

[22] = system: velvetleaf (Abutilon theophrasti, ABUTH); experiment: as above; conditions: post-emerge, 14 days after application, rating scale 0-100
Method in brief: as §4

[23] = 63 g ai/ha, rating scale 0-100 (0 no damage, 100 complete death)
[24] = 250 g ai/ha, rating scale 0-100

## Cc1ccc(OC(=O)Nc2c(C)c(Cl)cc(F)c2-n2c(=O)cc(C(F)(F)F)n(C)c2=O)cc1C [4-53]
[1]; 63 g ai/ha
  Pre-emerge Herbicidal Activity CASOB: 20
[1]; 250 g ai/ha
  Pre-emerge Herbicidal Activity CASOB: 60
[2]; 63 g ai/ha
  Pre-emerge Herbicidal Activity DIGSA: 40
[2]; 250 g ai/ha
  Pre-emerge Herbicidal Activity DIGSA: 100
[3]; 63 g ai/ha
  Pre-emerge Herbicidal Activity SORHA: 30
[3]; 250 g ai/ha
  Pre-emerge Herbicidal Activity SORHA: 85
[4]; 63 g ai/ha
  Pre-emerge Herbicidal Activity CHEAL: 100
[4]; 250 g ai/ha
  Pre-emerge Herbicidal Activity CHEAL: 100
[5]; 63 g ai/ha
  Pre-emerge Herbicidal Activity ECHCG: 10
[5]; 250 g ai/ha
  Pre-emerge Herbicidal Activity ECHCG: 85
[6]; 63 g ai/ha
  Pre-emerge Herbicidal Activity IPOHE: 30
[6]; 250 g ai/ha
  Pre-emerge Herbicidal Activity IPOHE: 80
[7]; 63 g ai/ha
  Pre-emerge Herbicidal Activity SETVI: 80
[7]; 250 g ai/ha
  Pre-emerge Herbicidal Activity SETVI: 100
[8]; 63 g ai/ha
  Pre-emerge Herbicidal Activity ABUTH: 100
[8]; 250 g ai/ha
  Pre-emerge Herbicidal Activity ABUTH: 100
[9]; 63 g ai/ha
  Pre-emerge Herbicidal Activity CORN: 0
[9]; 250 g ai/ha
  Pre-emerge Herbicidal Activity CORN: 25
[10]; 63 g ai/ha
  Pre-emerge Herbicidal Activity RICE: 10
[10]; 250 g ai/ha
  Pre-emerge Herbicidal Activity RICE: 50
[11]; 63 g ai/ha
  phytotoxicity rating CORN (crop damage): 5
[11]; 250 g ai/ha
  phytotoxicity rating CORN (crop damage): 70
[12]; 63 g ai/ha
  phytotoxicity rating RICE (crop damage): 30
[12]; 250 g ai/ha
  phytotoxicity rating RICE (crop damage): 65
[13]; 63 g ai/ha
  Pre-emerge Herbicidal Activity AMARE: 100
[13]; 250 g ai/ha
  Pre-emerge Herbicidal Activity AMARE: 100
[14]; 63 g ai/ha
  phytotoxicity rating CASOB: 30
[14]; 250 g ai/ha
  phytotoxicity rating CASOB: 90
[15]; 63 g ai/ha
  phytotoxicity rating DIGSA: 0
[15]; 250 g ai/ha
  phytotoxicity rating DIGSA: 40
[16]; 63 g ai/ha
  phytotoxicity rating SORHA: 0
[16]; 250 g ai/ha
  phytotoxicity rating SORHA: 40
[17]; [23]
  phytotoxicity rating AMARE: 70
[17]; [24]
  phytotoxicity rating AMARE: 100
[18]; 63 g ai/ha
  phytotoxicity rating CHEAL: 60
[18]; 250 g ai/ha
  phytotoxicity rating CHEAL: 90
[19]; 63 g ai/ha
  phytotoxicity rating ECHCG: 0
[19]; 250 g ai/ha
  phytotoxicity rating ECHCG: 60
[20]; 63 g ai/ha
  phytotoxicity rating IPOHE: 100
[20]; 250 g ai/ha
  phytotoxicity rating IPOHE: 100
[21]; 63 g ai/ha
  phytotoxicity rating SETVI: 10
[21]; 250 g ai/ha
  phytotoxicity rating SETVI: 70
[22]; 63 g ai/ha
  phytotoxicity rating ABUTH: 100
[22]; 250 g ai/ha
  phytotoxicity rating ABUTH: 100

## Cc1c(Cl)cc(F)c(-n2c(=O)cc(C(F)(F)F)n(C)c2=O)c1NC(=O)OCc1ccccc1Cl [4-54]
[1]; 63 g ai/ha
  Pre-emerge Herbicidal Activity CASOB: 30
[1]; 250 g ai/ha
  Pre-emerge Herbicidal Activity CASOB: 80
[2]; 63 g ai/ha
  Pre-emerge Herbicidal Activity DIGSA: 60
[2]; 250 g ai/ha
  Pre-emerge Herbicidal Activity DIGSA: 100
[3]; 63 g ai/ha
  Pre-emerge Herbicidal Activity SORHA: 30
[3]; 250 g ai/ha
  Pre-emerge Herbicidal Activity SORHA: 80
[4]; 63 g ai/ha
  Pre-emerge Herbicidal Activity CHEAL: 90
[4]; 250 g ai/ha
  Pre-emerge Herbicidal Activity CHEAL: 100
[5]; 63 g ai/ha
  Pre-emerge Herbicidal Activity ECHCG: 50
[5]; 250 g ai/ha
  Pre-emerge Herbicidal Activity ECHCG: 85
[6]; 63 g ai/ha
  Pre-emerge Herbicidal Activity IPOHE: 30
[6]; 250 g ai/ha
  Pre-emerge Herbicidal Activity IPOHE: 70
[7]; 63 g ai/ha
  Pre-emerge Herbicidal Activity SETVI: 90
[7]; 250 g ai/ha
  Pre-emerge Herbicidal Activity SETVI: 100
[8]; 63 g ai/ha
  Pre-emerge Herbicidal Activity ABUTH: 100
[8]; 250 g ai/ha
  Pre-emerge Herbicidal Activity ABUTH: 90
[9]; 63 g ai/ha
  Pre-emerge Herbicidal Activity CORN: 0
[9]; 250 g ai/ha
  Pre-emerge Herbicidal Activity CORN: 5
[10]; 63 g ai/ha
  Pre-emerge Herbicidal Activity RICE: 10
[10]; 250 g ai/ha
  Pre-emerge Herbicidal Activity RICE: 60
[11]; 63 g ai/ha
  phytotoxicity rating CORN (crop damage): 40
[11]; 250 g ai/ha
  phytotoxicity rating CORN (crop damage): 75
[12]; 63 g ai/ha
  phytotoxicity rating RICE (crop damage): 90
[12]; 250 g ai/ha
  phytotoxicity rating RICE (crop damage): 100
[13]; 63 g ai/ha
  Pre-emerge Herbicidal Activity AMARE: 100
[13]; 250 g ai/ha
  Pre-emerge Herbicidal Activity AMARE: 100
[14]; 63 g ai/ha
  phytotoxicity rating CASOB: 90
[14]; 250 g ai/ha
  phytotoxicity rating CASOB: 100
[15]; 63 g ai/ha
  phytotoxicity rating DIGSA: 30
[15]; 250 g ai/ha
  phytotoxicity rating DIGSA: 60
[16]; 63 g ai/ha
  phytotoxicity rating SORHA: 40
[16]; 250 g ai/ha
  phytotoxicity rating SORHA: 70
[17]; [23]
  phytotoxicity rating AMARE: 100
[17]; [24]
  phytotoxicity rating AMARE: 100
[18]; 63 g ai/ha
  phytotoxicity rating CHEAL: 100
[18]; 250 g ai/ha
  phytotoxicity rating CHEAL: 100
[19]; 63 g ai/ha
  phytotoxicity rating ECHCG: 70
[19]; 250 g ai/ha
  phytotoxicity rating ECHCG: 80
[20]; 63 g ai/ha
  phytotoxicity rating IPOHE: 100
[20]; 250 g ai/ha
  phytotoxicity rating IPOHE: 100
[21]; 63 g ai/ha
  phytotoxicity rating SETVI: 80
[21]; 250 g ai/ha
  phytotoxicity rating SETVI: 90
[22]; 63 g ai/ha
  phytotoxicity rating ABUTH: 100
[22]; 250 g ai/ha
  phytotoxicity rating ABUTH: 100
